US4603125A, “Substituted o-phenylenediamine acridine compounds having antitumor activity” (Development Finance Corporation of New Zealand, priority 1982, dated 1986)
Entries after “also recorded” stand apart in the source; their conditions may differ.

Columns and labels:
P388 Leukemia = assay: P388 leukemia in vivo (increase in lifespan); conditions: at OD; i.p. tumour, days 1, 5 and 9; >20% statistically significant
[1] = Rm from reversed phase partition chromatography (lipophilic-hydrophilic balance)
Text: (§1) Rm=a measure of the compound's lipophilic-hydrophilic balance from reversed phase partition chromatography. Rm is linearly related to partition coefficients obtained in the 1-octanol/water system.

Lewis lung carcinoma = Lewis lung carcinoma in vivo (increase in lifespan); conditions: for ILS (percentage increase in lifespan), Lewis lung: i.v. tumour, days 1, 5 and 9, >40% statistically significant
Text: LL. is the Lewis lung carcinoma.

physchem = conditions: reversed phase partition chromatography
Text: as §1

tumour = assay: antitumour activity in in vivo test systems (summary); conditions: compared to unsubstituted AMSA and m-AMSA (for compound 1)
Text: The compounds of general formula (I) and particularly the examples listed in Tables I and II, have antitumor activity in in vivo test systems, as shown by the data of Tables III and IV.

L1210 leukemia = conditions: earlier work, cited from earlier work

Row | Compound | ILSmax (percentage increase in lifespan), P388 (P388 Leukemia) [%] | chromatographic logP [1] | further results
1 | CNC(=O)c1cccc2c(Nc3ccc(NS(C)(=O)=O)cc3NC)c3cccc(C)c3nc12 [Compound 24] | 94 | 0.23 | –
2 | CNc1cc(NC(=O)OC)ccc1Nc1c2ccc(Br)cc2nc2c(C)cccc12 [Compound 57] | 97 | 0.69 | ILS (percentage increase in lifespan), Lewis lung (Lewis lung carcinoma; at OD): 82%
3 | CNc1cc(NC(=O)Oc2ccccc2)ccc1Nc1c2ccccc2nc2ccccc12 [Compound 66] | 71 | 0.76 | –
4 | CNc1cc(NC(=O)OC)ccc1Nc1c2ccccc2nc2cc(Cl)ccc12 [Compound 54] | – | 0.73 | –
5 | CNc1cc(NS(C)(=O)=O)ccc1Nc1c2ccccc2nc2cc(Cl)ccc12 [Compound 6] | – | 0.36 | –
6 | Cc1cccc2c(Nc3ccc(NS(C)(=O)=O)cc3NCC(O)CO)c3ccccc3nc12 (stereo not drawn) [Compound 31] | 83 | 0.21 | –
7 | CNc1cc(NS(C)(=O)=O)ccc1Nc1c2ccccc2nc2cc(NC(=O)OC)ccc12 [Compound 11] | – | 0.13 | –
8 | CNc1cc(NS(C)(=O)=O)ccc1Nc1c2ccc(C)cc2nc2c(C)cccc12 [Compound 16] | 92 | 0.38 | –
9 | CNc1cc(NS(C)(=O)=O)ccc1Nc1c2cccc(OC)c2nc2c(OC)cccc12 [Compound 26] | 84 | – | –
10 | CNc1cc(NS(C)(=O)=O)ccc1Nc1c2ccc(Br)cc2nc2c(C)cccc12 [Compound 21] | – | 0.38 | –
11 | CNc1ccc2c(Nc3ccc(NS(C)(=O)=O)cc3NC)c3ccccc3nc2c1 [Compound 10] | – | 0.18 | –
12 | COc1ccc2c(Nc3ccc(NS(C)(=O)=O)cc3N(C)C)c3cccc(C)c3nc2c1 [Compound 41] | – | – | chromatographic logP (physchem): 0.44
13 | CNc1cc(NS(C)(=O)=O)ccc1Nc1c2ccccc2nc2cc(F)ccc12 [Compound 5] | – | 0.28 | –
14 | COC(=O)Nc1ccc(Nc2c3ccccc3nc3ccccc23)c(NCCO)c1 [Compound 51] | – | 0.39 | –
15 | CNc1cc(NC(=O)OC)ccc1Nc1c2ccccc2nc2cc(F)ccc12 [Compound 53] | 110 | 0.63 | –
16 | CNc1cc(NC(=O)OC)ccc1Nc1c2ccccc2nc2ccccc12 [Compound 50] | – | 0.51 | –
17 | CNc1cc(NS(C)(=O)=O)ccc1Nc1c2cccc(C)c2nc2c(C)cccc12 [Compound 25] | – | 0.16 | –
18 | CNc1cc(NS(C)(=O)=O)ccc1Nc1c2ccc(Cl)cc2nc2c(C)cccc12 [Compound 19] | – | 0.4 | –
19 | CNc1cc(NS(=O)(=O)c2ccc(N)cc2)ccc1Nc1c2ccccc2nc2cc(Br)ccc12 [Compound 63] | – | 0.29 | –
20 | CN(CCO)c1cc(NS(C)(=O)=O)ccc1Nc1c2ccccc2nc2ccccc12 [Compound 45] | 100 | 0.1 | –
21 | CNc1cc(NS(C)(=O)=O)ccc1Nc1c2ccccc2nc2cc(Br)ccc12 [Compound 7] | 94 | 0.34 | –
22 | Cc1cccc2c(Nc3ccc(NS(C)(=O)=O)cc3NCCO)c3ccccc3nc12 [Compound 29] | – | 0.02 | –
23 | CNc1cc(NC(=O)OC)ccc1Nc1c2ccccc2nc2c(C)cccc12 [Compound 58] | – | 0.56 | ILS (percentage increase in lifespan), Lewis lung (Lewis lung carcinoma; at OD): 48%
24 | CNc1cc(NS(C)(=O)=O)ccc1Nc1c2ccc(C)cc2nc2c(OC)cccc12 [Compound 22] | – | 0.33 | –
25 | CNc1cc(NS(=O)(=O)c2ccccc2)ccc1Nc1c2ccccc2nc2ccccc12 [Compound 60] | – | 0.55 | –
26 | Nc1ccc(S(=O)(=O)Nc2ccc(Nc3c4ccccc4nc4ccccc34)c(NCCO)c2)cc1 [Compound 65] | 50 | 0.18 | –
27 | CS(=O)(=O)Nc1ccc(Nc2c3ccccc3nc3cc(Br)ccc23)c(NCCO)c1 [Compound 28] | – | 0.11 | –
28 | CNc1cc(NS(C)(=O)=O)ccc1Nc1c2ccc(OC)cc2nc2c(C)cccc12 [Compound 17] | – | 0.31 | –

Row | Compound | ILSmax (percentage increase in lifespan), P388 (P388 Leukemia) [%] | chromatographic logP [1] | further results
29 | CNc1cc(NP(=O)(OC)OC)ccc1Nc1c2ccccc2nc2c(C)cccc12 [Compound 49] | 91 | 0.47 | –
30 | CNc1cc(NS(=O)(=O)c2ccc(N)cc2)ccc1Nc1c2ccccc2nc2c(C)cccc12 [Compound 64] | – | 0.13 | –
31 | CNc1cc(NS(C)(=O)=O)ccc1Nc1c2ccccc2nc2ccccc12 [Compound 1] | – | 0.17 | ILS (percentage increase in lifespan), Lewis lung (Lewis lung carcinoma; at OD): 85%; potency and antitumour activity (tumour): increased potency and antitumour activity
32 | CNc1cc(NC(=O)OC)ccc1Nc1c2ccc(Cl)cc2nc2c(C)cccc12 [Compound 56] | – | 0.67 | ILS (percentage increase in lifespan), Lewis lung (Lewis lung carcinoma; at OD): 100%
33 | CNc1cc(NS(=O)(=O)c2ccc(N)cc2)ccc1Nc1c2ccccc2nc2ccccc12 [Compound 62] | – | 0.03 | –
34 | CS(=O)(=O)Nc1ccc(Nc2c3ccccc3nc3ccccc23)c(NCCO)c1 [Compound 27] | 89 | 0.07 | –
35 | CNc1cc(NS(C)(=O)=O)ccc1Nc1c2ccccc2nc2c(C)cccc12 [Compound 12] | – | 0.19 | –
36 | CN(C)c1cc(NS(C)(=O)=O)ccc1Nc1c2ccccc2nc2ccccc12 [Compound 32] | 212 | 0.41 | cures, Lewis lung (Lewis lung carcinoma; at OD): all cured; ILS (percentage increase in lifespan), Lewis lung (Lewis lung carcinoma; at OD): > 250%
37 | CNC(=O)c1cccc2c(Nc3ccc(NS(C)(=O)=O)cc3N(C)C)c3cccc(C)c3nc12 [Compound 44] | – | – | chromatographic logP (physchem): 0.4
38 | CNc1cc(NS(C)(=O)=O)ccc1Nc1c2ccc(F)cc2nc2c(C)cccc12 [Compound 18] | – | 0.31 | –
39 | CNc1cc(NS(C)(=O)=O)ccc1Nc1c2ccccc2nc2cc([N+](=O)[O-])ccc12 [Compound 9] | 70 | 0.04 | –
40 | O=S(=O)(Nc1ccc(Nc2c3ccccc3nc3ccccc23)c(NCCO)c1)c1ccccc1 [Compound 61] | 81 | 0.35 | –
41 | Cc1cccc2c(Nc3ccc(NS(C)(=O)=O)cc3N(C)C)c3ccccc3nc12 [Compound 34] | – | – | chromatographic logP (physchem): 0.36
42 | CNc1cc(NC(=O)OC)ccc1Nc1c2ccccc2nc2cc(Br)ccc12 [Compound 55] | – | 0.7 | –
43 | CNC(=O)c1cccc2c(Nc3ccc(NS(C)(=O)=O)cc3NC)c3ccc(Cl)cc3nc12 [Compound 23] | 59 | 0.23 | –
44 | CNc1cc(NS(C)(=O)=O)ccc1Nc1c2ccccc2nc2cc(C)ccc12 [Compound 3] | 83 | 0.39 | –
45 | CNc1cc(NS(C)(=O)=O)ccc1Nc1c2ccccc2nc2c(OC)cccc12 [Compound 13] | – | 0.12 | –
46 | CNc1cc(NP(=O)(OC)OC)ccc1Nc1c2ccccc2nc2ccccc12 [Compound 47] | 118 | 0.32 | –
47 | CNc1cc(NS(C)(=O)=O)ccc1Nc1c2ccccc2nc2cc(I)ccc12 [Compound 8] | 80 | 0.35 | –
48 | CNc1cc(NS(C)(=O)=O)ccc1Nc1c2ccccc2nc2cc(OC)ccc12 [Compound 4] | 140 | 0.21 | –
49 | CNC(=O)c1cccc2c(Nc3ccc(NS(C)(=O)=O)cc3NC)c3ccccc3nc12 [Compound 15] | 82 | 0.07 | –
50 | CS(=O)(=O)Nc1ccc(Nc2c3ccccc3nc3ccccc23)cc1 [AMSA, 4'-(9-acridinylamino) methanesulphonanilide] | – | – | antitumour activity on L1210 leukemia (L1210 leukemia): good antitumour activity
51 | CS(=O)(=O)Nc1ccc(Nc2c3ccccc3nc3ccccc23)c(NCC(O)CO)c1 (stereo not drawn) [Compound 30] | 84 | 0.3 | –
52 | COc1cc(NS(C)(=O)=O)ccc1Nc1c2ccccc2nc2ccccc12 [m-AMSA, 4'-(9-acridinylamino)methanesulphon-m-anisidide, reference compound] | 78 | – | ILS (percentage increase in lifespan), Lewis lung (Lewis lung carcinoma; at OD): 38%; active, Lewis lung (Lewis lung carcinoma; at the stated dose (OD)): Y/N; Lewis lung activity in words (Lewis lung carcinoma; tumour implanted intravenously): minimal activity; also recorded: strictly inactive; dose potency of 3'-methoxy derivative (L1210 leukemia; vs AMSA): increased dose potency
53 | CNc1cc(NC(=O)OC)ccc1Nc1c2ccccc2nc2cc(C)ccc12 [Compound 52] | 86 | 0.78 | –
54 | COC(=O)Nc1ccc(Nc2c3ccccc3nc3ccccc23)c(N(C)C)c1 [Compound 59] | 51 | 0.56 | –
55 | CNc1cc(NP(=O)(OC)OC)ccc1Nc1c2ccccc2nc2cc(Br)ccc12 [Compound 48] | 77 | 0.62 | –
